Measurements from ChEMBL document CHEMBL4138175, “Newly designed organotin(IV) carboxylates with peptide linkage: Synthesis, structural elucidation, physicochemical characterizations and pharmacological investigations” (Eur J Med Chem, 2018).
Activity calls are given as the source filed them. The rule behind the calls is not given here.

Columns and labels:
Pseudomonas aeruginosa [1] = assay: Antibacterial activity against Pseudomonas aeruginosa assessed as zone of inhibition after 24 to 48 hrs by well diffusion method; assay type: functional
Klebsiella pneumoniae [2] = assay: Antibacterial activity against Klebsiella pneumoniae assessed as zone of inhibition by measuring activity index after 24 to 48 hrs by well diffusion method relative to penicillin G; assay type: functional, organism-based
Staphylococcus aureus [3] = assay: Antibacterial activity against Staphylococcus aureus assessed as zone of inhibition by measuring activity index after 24 to 48 hrs by well diffusion method relative to tetracycline; assay type: functional, organism-based
NCI-H157 [4] = assay: Cytotoxicity against human NCI-H157 cells after 48 hrs by sulforhodamine B assay; assay type: functional, cell-based
Pseudomonas aeruginosa [5] = assay: Antibacterial activity against Pseudomonas aeruginosa assessed as zone of inhibition by measuring activity index after 24 to 48 hrs by well diffusion method relative to tetracycline; assay type: functional, organism-based
NCI-H157 [6] = assay: Cytotoxicity against human NCI-H157 cells at 1 uM after 48 hrs by sulforhodamine B assay; assay type: functional
Staphylococcus aureus [7] = assay: Antibacterial activity against Staphylococcus aureus assessed as zone of inhibition by measuring activity index after 24 to 48 hrs by well diffusion method relative to ampicillin; assay type: functional, organism-based
Pseudomonas aeruginosa [8] = assay: Antibacterial activity against Pseudomonas aeruginosa assessed as zone of inhibition by measuring activity index after 24 to 48 hrs by well diffusion method relative to penicillin G; assay type: functional, organism-based
Streptococcus pyogenes [9] = assay: Antibacterial activity against Streptococcus pyogenes assessed as zone of inhibition after 24 to 48 hrs by well diffusion method; assay type: functional
DNA [10] = assay: Binding affinity to single-stranded DNA (unknown origin) after 10 mins by UV-visible spectrometric method; assay type: nucleic-acid assay
Serratia marcescens [11] = assay: Antibacterial activity against Serratia marcescens assessed as zone of inhibition by measuring activity index after 24 to 48 hrs by well diffusion method relative to penicillin G; assay type: functional
NCI-H157 [12] = assay: Cytotoxicity against human NCI-H157 cells at 10 uM after 48 hrs by sulforhodamine B assay; assay type: functional
Serratia marcescens [13] = assay: Antibacterial activity against Serratia marcescens assessed as zone of inhibition after 24 to 48 hrs by well diffusion method; assay type: functional
Klebsiella pneumoniae [14] = assay: Antibacterial activity against Klebsiella pneumoniae assessed as zone of inhibition after 24 to 48 hrs by well diffusion method; assay type: functional
Escherichia coli [15] = assay: Antibacterial activity against Escherichia coli assessed as zone of inhibition after 24 to 48 hrs by well diffusion method; assay type: functional
[16] = tested on: Staphylococcus epidermidis; assay: Antibacterial activity against Staphylococcus epidermidis assessed as zone of inhibition after 24 to 48 hrs by well diffusion method; assay type: functional
[17] = tested on: Staphylococcus epidermidis; assay: Antibacterial activity against Staphylococcus epidermidis assessed as zone of inhibition by measuring activity index after 24 to 48 hrs by well diffusion method relative to tetracycline; assay type: functional, organism-based
Staphylococcus aureus [18] = assay: Antibacterial activity against Staphylococcus aureus assessed as zone of inhibition after 24 to 48 hrs by well diffusion method; assay type: functional
Leishmania major [19] = assay: Antileishmanial activity against Leishmania major promastigotes at 10 uM after 72 hrs by MTT assay relative to control; assay type: functional
Leishmania major [20] = assay: Antileishmanial activity against Leishmania major promastigotes at 0.1 uM after 72 hrs by MTT assay relative to control; assay type: functional
Escherichia coli [21] = assay: Antibacterial activity against Escherichia coli assessed as zone of inhibition by measuring activity index after 24 to 48 hrs by well diffusion method relative to tetracycline; assay type: functional
Leishmania major [22] = assay: Antileishmanial activity against Leishmania major promastigotes at 1 uM after 72 hrs by MTT assay relative to control; assay type: functional
Serratia marcescens [23] = assay: Antibacterial activity against Serratia marcescens assessed as zone of inhibition by measuring activity index after 24 to 48 hrs by well diffusion method relative to ampicillin; assay type: functional
Staphylococcus aureus [24] = assay: Antibacterial activity against Staphylococcus aureus assessed as zone of inhibition by measuring activity index after 24 to 48 hrs by well diffusion method relative to amoxicillin; assay type: functional, organism-based
Leishmania major [25] = assay: Antileishmanial activity against Leishmania major promastigotes at 100 uM after 72 hrs by MTT assay relative to control; assay type: functional
Serratia marcescens [26] = assay: Antibacterial activity against Serratia marcescens assessed as zone of inhibition by measuring activity index after 24 to 48 hrs by well diffusion method relative to amoxicillin; assay type: functional
[27] = tested on: Staphylococcus epidermidis; assay: Antibacterial activity against Staphylococcus epidermidis assessed as zone of inhibition by measuring activity index after 24 to 48 hrs by well diffusion method relative to amoxicillin; assay type: functional, organism-based
NCI-H157 [28] = assay: Cytotoxicity against human NCI-H157 cells at 100 uM after 48 hrs by sulforhodamine B assay; assay type: functional
NCI-H157 [29] = assay: Cytotoxicity against human NCI-H157 cells at 0.1 uM after 48 hrs by sulforhodamine B assay; assay type: functional
Staphylococcus aureus [30] = assay: Antibacterial activity against Staphylococcus aureus assessed as zone of inhibition by measuring activity index after 24 to 48 hrs by well diffusion method relative to penicillin G; assay type: functional, organism-based
DNA [31] = assay: Binding affinity to single-stranded DNA (unknown origin) assessed as red shift up to 72 uM after 10 mins by UV-visible spectrometric method; assay type: nucleic-acid assay
Pseudomonas aeruginosa [32] = assay: Antibacterial activity against Pseudomonas aeruginosa assessed as zone of inhibition by measuring activity index after 24 to 48 hrs by well diffusion method relative to amoxicillin; assay type: functional, organism-based
Streptococcus pyogenes [33] = assay: Antibacterial activity against Streptococcus pyogenes assessed as zone of inhibition by measuring activity index after 24 to 48 hrs by well diffusion method relative to penicillin G; assay type: functional, organism-based
Streptococcus pyogenes [34] = assay: Antibacterial activity against Streptococcus pyogenes assessed as zone of inhibition by measuring activity index after 24 to 48 hrs by well diffusion method relative to amoxicillin; assay type: functional, organism-based
Streptococcus pyogenes [35] = assay: Antibacterial activity against Streptococcus pyogenes assessed as zone of inhibition by measuring activity index after 24 to 48 hrs by well diffusion method relative to ampicillin; assay type: functional, organism-based
Streptococcus pyogenes [36] = assay: Antibacterial activity against Streptococcus pyogenes assessed as zone of inhibition by measuring activity index after 24 to 48 hrs by well diffusion method relative to tetracycline; assay type: functional, organism-based
Klebsiella pneumoniae [37] = assay: Antibacterial activity against Klebsiella pneumoniae assessed as zone of inhibition by measuring activity index after 24 to 48 hrs by well diffusion method relative to amoxicillin; assay type: functional, organism-based
Escherichia coli [38] = assay: Antibacterial activity against Escherichia coli assessed as zone of inhibition by measuring activity index after 24 to 48 hrs by well diffusion method relative to amoxicillin; assay type: functional, organism-based
Escherichia coli [39] = assay: Antibacterial activity against Escherichia coli assessed as zone of inhibition by measuring activity index after 24 to 48 hrs by well diffusion method relative to penicillin G; assay type: functional, organism-based
Escherichia coli [40] = assay: Antibacterial activity against Escherichia coli assessed as zone of inhibition by measuring activity index after 24 to 48 hrs by well diffusion method relative to ampicillin; assay type: functional, organism-based
Klebsiella pneumoniae [41] = assay: Antibacterial activity against Klebsiella pneumoniae assessed as zone of inhibition by measuring activity index after 24 to 48 hrs by well diffusion method relative to tetracycline; assay type: functional, organism-based
Pseudomonas aeruginosa [42] = assay: Antibacterial activity against Pseudomonas aeruginosa assessed as zone of inhibition by measuring activity index after 24 to 48 hrs by well diffusion method relative to ampicillin; assay type: functional, organism-based
Klebsiella pneumoniae [43] = assay: Antibacterial activity against Klebsiella pneumoniae assessed as zone of inhibition by measuring activity index after 24 to 48 hrs by well diffusion method relative to ampicillin; assay type: functional, organism-based

Substance	inhibition zone (IZ) (Pseudomonas aeruginosa [1])	Activity (NCI-H157 [4])	Activity (NCI-H157 [6]) [%]	inhibition zone (IZ) (Streptococcus pyogenes [9])	Activity index (Serratia marcescens [11])	Activity (NCI-H157 [12]) [%]	inhibition zone (IZ) (Serratia marcescens [13]) [mm]	inhibition zone (IZ) (Klebsiella pneumoniae [14])	inhibition zone (IZ) (Escherichia coli [15])	inhibition zone (IZ) [16] [mm]	Activity index [17]	inhibition zone (IZ) (Staphylococcus aureus [18])	Activity (Leishmania major [19]) [%]	Activity (Leishmania major [20]) [%]	Activity (Leishmania major [22]) [%]	Activity index (Serratia marcescens [23])	Activity (Leishmania major [25]) [%]	Activity index (Serratia marcescens [26])	Activity index [27]	Activity (NCI-H157 [28]) [%]	further results
(2,9-Dimethyl-1,10-Phenanthroline) trimethylstannyl 2-(4-methoxy-2-nitrophenylcarbamo-yl)benzoate	23 mm	Dose-dependent effect	48.6	5 mm	1.96	50.3	15.7	inactive	1.53 mm	16	1.6	inactive	59.5	52.1	56.7	1.96	62.1	2.61	8	52.8	Activity_index (Klebsiella pneumoniae [2]): inactive; Activity_index (Staphylococcus aureus [3]): inactive; Activity index (Pseudomonas aeruginosa [5]): 3.84; Activity_index (Staphylococcus aureus [7]): inactive; Activity index (Pseudomonas aeruginosa [8]): 3.84; K (DNA [10]): 2 ×10⁴ /M; Activity index (Escherichia coli [21]): 0.77; Activity_index (Staphylococcus aureus [24]): inactive; Activity (NCI-H157 [29]): 45.5%; Activity_index (Staphylococcus aureus [30]): inactive; Activity (DNA [31]): < 3 nm; Activity index (Pseudomonas aeruginosa [32]): 3.84
(2,2'-Bipyridine) trimethylstannyl 2-(4-methoxy-2-nitrophenylcarbamoyl)benzoate	20.3 mm	Dose-dependent effect	57.8	inactive	2.42	59.9	19.3	inactive	17.7 mm	23.3	2.33	19.3 mm	50.9	39.2	44.3	2.42	56.6	3.22	11.7	63.2	Activity_index (Streptococcus pyogenes [33]): inactive; Activity_index (Klebsiella pneumoniae [2]): inactive; Activity index (Pseudomonas aeruginosa [5]): 3.39; Activity index (Pseudomonas aeruginosa [8]): 3.39; Activity_index (Streptococcus pyogenes [34]): inactive; K (DNA [10]): 1.2 ×10⁴ /M; Activity_index (Streptococcus pyogenes [35]): inactive; Activity index (Escherichia coli [21]): 8.83; Activity (NCI-H157 [29]): 56.7%; Activity_index (Streptococcus pyogenes [36]): inactive; Activity (DNA [31]): < 3 nm; Activity index (Pseudomonas aeruginosa [32]): 3.39
Dioctylstannanediyl bis 2-(4-methoxy-2-nitrophenylcarbamoyl)benzoate	inactive	Dose-dependent effect	54.3	12 mm	0.63	59.1	5	22.3 mm	inactive	11.3	1.13	inactive	55.2	42.9	47.1	0.63	58.8	0.84	5.67	63.7	Activity index (Klebsiella pneumoniae [37]): 3.72; Activity_index (Staphylococcus aureus [3]): inactive; Activity_index (Staphylococcus aureus [7]): inactive; Activity_index (Escherichia coli [38]): inactive; Activity_index (Escherichia coli [39]): inactive; Activity_index (Escherichia coli [40]): inactive; Activity_index (Staphylococcus aureus [24]): inactive; Activity index (Klebsiella pneumoniae [41]): 1.59; Activity (NCI-H157 [29]): 48.9%; Activity_index (Staphylococcus aureus [30]): inactive; Activity_index (Pseudomonas aeruginosa [42]): inactive; Activity index (Klebsiella pneumoniae [43]): 3.72
Tributylstannyl 2-(4-methoxy-2-nitrophenylcarbamoyl)benzoate	15.7 mm	Dose-dependent effect	35.6	inactive	1.58	37.7	12.7	15 mm	1.56 mm	16	1.6	inactive	63.3	52.6	57.4	1.58	66.9	2.11	8	38.2	Activity_index (Streptococcus pyogenes [33]): inactive; Activity index (Klebsiella pneumoniae [37]): 2.5; Activity_index (Staphylococcus aureus [3]): inactive; Activity index (Pseudomonas aeruginosa [5]): 2.61; Activity_index (Staphylococcus aureus [7]): inactive; Activity index (Pseudomonas aeruginosa [8]): 2.61; Activity_index (Streptococcus pyogenes [34]): inactive; K (DNA [10]): 7.6 ×10³ /M; Activity_index (Streptococcus pyogenes [35]): inactive; Activity index (Escherichia coli [21]): 0.78; Activity_index (Staphylococcus aureus [24]): inactive; Activity index (Klebsiella pneumoniae [41]): 1.07; Activity (NCI-H157 [29]): 32.1%; Activity_index (Staphylococcus aureus [30]): inactive; Activity_index (Streptococcus pyogenes [36]): inactive; Activity (DNA [31]): < 3 nm; Activity index (Klebsiella pneumoniae [43]): 2.5; Activity index (Pseudomonas aeruginosa [32]): 2.61
